Tests used:
Benzodiazepine = assay: Radioligand binding, Benzodiazepine
Text: (§1) EAAs are known to play important roles in excitatory neurotransmission in partial seizures as discussed earlier. […] Thus, several aminoalkylpyridines of this invention are effective antagonists of NMDA-receptor mediated EAA neurotransmission and function as noncompetitive NMDA antagonists and thus can be used to advantage in epilepsy, stroke and Alzheimer's disease.
(§2) EAAs are known to play important roles in excitatory transmission in partial seizures as discussed earlier. In general, antieptileptic drugs effective against MES seizures alter ionic transport across excitable membranes [Porter, R. J., and Pitlick, W. H., In "Basic and Clinical Pharmacology", 4th Edn., B. G. Katzung, Ed., Appleton and Lange, CA 1989, pp. 287-303]. Based on this rationale, the aminoalkylpyridines may be expected to attenuate EAA neurotransmission. Indeed, evaluation of potential displacement activity of #2 at all inhibitory and excitatory amino acid receptor types and subtypes using appropriate radioligands, indicate that this aminoalkylpyridine inhibits at 10 μM concentration, 49% of the binding of [^3 H]DTG, a ligand highly specific for the σ (sigma) receptor population of the PCP receptors on the NMDA receptor-ionophore complex (Table 6).
(§3) Values are expressed as the percent inhibition of specific binding and […]

Glycine [1] = molecular target: Glycine (Homo sapiens, UniProt P23415); assay: Radioligand binding, Glycine (inhibitory)
Text: (§4) EAAs are known to play important roles in excitatory neurotransmission in partial seizures as discussed earlier.
(§5) EAAs are known to play important roles in excitatory transmission in partial seizures as discussed earlier.

GABAA = assay: Radioligand binding, GABAA
Text: as §4, §5

NMDA = assay: Radioligand binding, NMDA, [3H]CGS19755
Text: as §1, §2, §3

MES and scMet seizures = assay: Anticonvulsant screening, ASP classification (MES and scMet tests) in mice, i.p.; format: in vivo, mouse; conditions: ip; i.p. mouse; read-out: ASP Group Classification
[2] = system: subcutaneous pentylenetetrazol seizures; assay: Subcutaneous pentylenetetrazol (Metrazole) seizure threshold test (scMet), mice, i.p.; format: in vivo; conditions: Mus musculus, ip
Procedure: (§6) The Subcutaneous Pentylenetetrazol (Metrazole) Seizure Threshold Test (scMet): A 0.5% solution of 85 mg/kg of pentylenetetrazol is administered subcutaneously in the posterior midline. The animal is observed for 30 minutes.

[3] = Rotorod ataxia test (neurotoxicity), mice, i.p.; conditions: mouse, in vivo, ip
Procedure: Neurotoxicity is evaluated in mice by the rotorod ataxia test. The animal is placed on a wooden rod of 11/8" diameter rotating at 6 rpm. Normal mice can remain on a rod rotating at this speed indefinitely.

[4] = system: subcutaneous pentylenetetrazol seizures; assay: Subcutaneous pentylenetetrazol seizure threshold test (scMet), rat, p.o.; format: in vivo, rat (Sprague-Dawley); conditions: po
Procedure: as §6

in vivo = assay: in vivo; design: species or system rat (Sprague-Dawley); conditions: rat, po
Text: Inability to do so rapidly indicates a neurologic deficit.

Adenosine = assay: Radioligand binding, Adenosine
Text: as §1, §2, §3

Glycine [5] = molecular target: Glycine (Homo sapiens, UniProt Q05586); assay: Radioligand binding, Glycine (excitatory), [3H]glycine
Text: as §4, §5

Kainate = assay: Radioligand binding, Kainate, [3H]KA
Text: as §1, §2, §3

MK-801 = assay: Radioligand binding, MK-801, [3H]MK-801
Text: as §1, §2, §3

PCF = assay: Radioligand binding, PCP, [3H]TCP
Text: as §1, §2, §3

Quisqualate = assay: Radioligand binding, Quisqualate, [3H]AMPA
Text: as §1, §2, §3

Sigma = assay: Radioligand binding, Sigma, [3H]DTG
Text: as §4, §5

GABAe = GABAe (Homo sapiens, UniProt Q9UBS5); assay: Radioligand binding, GABAe
Text: as §4, §5

[6] = system: endogenous L-glutamate release; assay: Ca2+ dependent, K+ evoked release of endogenous L-glutamate in cerebrocortical slices; format: cell-based, guinea pig; conditions: Cavia porcellus; for activity at 50 µM / activity at 100 µM: means ± SEM, n = 4
[7] = system: maximal electroshock seizures; assay: Maximal electroshock seizure (MES) test in the rat, p.o.
Text: (§7) The Maximal Electroshock Seizure Test (MES): Maximal electroshock seizures are elicited with a 60 Hz alternating current of 50 mA intensity in mice and about 150 mA in rats (5-7 times that necessary to elicit minimal electroshock seizures), delivered for 0.2 sec via corneal electrodes. A drop of 0.9% saline is instilled in the eye prior to application of the electrodes in order to prevent the death of the animal. Abolition of the hind limb tonic extension component of the seizure is defined as protection and results are expressed as number of animals protected/number of animals tested.
This species will be subject of the complete anticonvulsant quantification test evaluation as described above, but after oral (gavage) administration of the candidate compound.
Neurological deficit in rats is examined by the positional sense test and gait and stance test. […] Inability to do so rapidly indicates a neurologic deficit. In the gait and stance test, a neurologic deficit is indicated by a circular or zigzag gait, ataxia, abnormal spread of the legs, abnormal body posture, tremor, hyperactivity, lack of exploratory behavior, somnolence, stupor, or catalepsy.

[8] = system: maximal electroshock seizures; assay: Maximal electroshock seizure (MES) test, anticonvulsant quantification in mice, i.p.
Procedure: Screening Methodology to Determine Anticonvulsant Activity: In mice, i.p.: All compounds are solubilized in 0.5% methylcellulose. […] The compounds are administered intraperitoneally in a volume of 0.01 ml/gm to male Carworth Farms #1 mice weighing about 20 gm. All compounds are tested at least at three dose levels (30, 100 an 300 mg/kg) at 30 minutes and 4 hours after their administration.
as §7
Anticonvulsant Quantification in Mice, i.p.: The ED50 values are determined in the MES, scMet and rotorod ataxia test.

[9] = 10^-7 M, read-out: Percent Inhibition of specific binding (Average; N = 2)

Chain of Glycine (Homo sapiens, UniProt P23415) (P23415 29-457): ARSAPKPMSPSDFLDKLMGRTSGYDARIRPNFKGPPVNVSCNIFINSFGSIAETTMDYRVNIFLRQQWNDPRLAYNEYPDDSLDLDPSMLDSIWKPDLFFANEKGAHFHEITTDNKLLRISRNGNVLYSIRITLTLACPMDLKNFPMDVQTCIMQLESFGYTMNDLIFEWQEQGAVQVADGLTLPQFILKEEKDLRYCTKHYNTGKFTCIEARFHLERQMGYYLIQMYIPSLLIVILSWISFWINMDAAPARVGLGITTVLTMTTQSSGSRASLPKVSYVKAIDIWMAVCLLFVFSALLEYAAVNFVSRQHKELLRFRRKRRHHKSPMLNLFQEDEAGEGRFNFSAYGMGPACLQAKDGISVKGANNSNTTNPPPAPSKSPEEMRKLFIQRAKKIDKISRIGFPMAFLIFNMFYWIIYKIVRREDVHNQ
Chain of Glycine (Homo sapiens, UniProt P23415) (P48167 23-497 partner): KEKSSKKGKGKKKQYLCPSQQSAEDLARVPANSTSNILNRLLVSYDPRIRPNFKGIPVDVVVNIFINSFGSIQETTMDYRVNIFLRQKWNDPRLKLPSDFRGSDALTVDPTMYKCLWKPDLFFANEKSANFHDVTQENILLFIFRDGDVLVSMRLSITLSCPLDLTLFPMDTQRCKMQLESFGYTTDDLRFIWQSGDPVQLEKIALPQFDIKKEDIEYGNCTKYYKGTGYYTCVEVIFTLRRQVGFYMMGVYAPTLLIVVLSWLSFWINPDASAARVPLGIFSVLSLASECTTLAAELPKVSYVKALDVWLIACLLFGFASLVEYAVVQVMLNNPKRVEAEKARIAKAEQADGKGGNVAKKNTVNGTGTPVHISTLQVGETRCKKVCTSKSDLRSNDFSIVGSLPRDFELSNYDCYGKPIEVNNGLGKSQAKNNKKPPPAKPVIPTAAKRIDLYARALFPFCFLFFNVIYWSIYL
Chain of GABAe (Q9UBS5 15-961 limits assumed): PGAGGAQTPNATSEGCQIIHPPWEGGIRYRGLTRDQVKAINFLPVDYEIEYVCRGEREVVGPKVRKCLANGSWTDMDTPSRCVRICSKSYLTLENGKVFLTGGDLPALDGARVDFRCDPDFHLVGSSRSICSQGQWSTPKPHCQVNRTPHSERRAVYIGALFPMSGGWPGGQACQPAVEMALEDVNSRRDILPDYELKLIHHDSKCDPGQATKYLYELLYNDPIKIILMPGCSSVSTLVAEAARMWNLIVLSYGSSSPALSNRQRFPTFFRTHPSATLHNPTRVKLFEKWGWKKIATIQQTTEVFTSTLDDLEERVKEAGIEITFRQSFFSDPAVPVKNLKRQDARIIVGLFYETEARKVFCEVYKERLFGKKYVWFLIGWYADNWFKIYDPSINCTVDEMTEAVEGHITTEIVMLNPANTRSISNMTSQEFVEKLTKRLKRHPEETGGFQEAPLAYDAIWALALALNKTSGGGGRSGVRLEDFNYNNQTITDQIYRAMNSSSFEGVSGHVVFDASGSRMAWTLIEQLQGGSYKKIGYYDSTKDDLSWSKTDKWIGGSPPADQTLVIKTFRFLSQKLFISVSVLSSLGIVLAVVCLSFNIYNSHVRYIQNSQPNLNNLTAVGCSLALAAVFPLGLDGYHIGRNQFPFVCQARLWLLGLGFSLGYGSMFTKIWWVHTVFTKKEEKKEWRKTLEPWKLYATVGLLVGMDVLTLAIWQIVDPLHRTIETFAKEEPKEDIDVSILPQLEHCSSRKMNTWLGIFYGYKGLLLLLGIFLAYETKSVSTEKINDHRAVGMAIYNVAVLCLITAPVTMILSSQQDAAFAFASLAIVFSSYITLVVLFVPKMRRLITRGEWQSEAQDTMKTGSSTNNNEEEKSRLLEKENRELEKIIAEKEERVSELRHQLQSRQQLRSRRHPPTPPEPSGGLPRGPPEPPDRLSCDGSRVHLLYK
Chain of GABAe (O75899 42-941 partner): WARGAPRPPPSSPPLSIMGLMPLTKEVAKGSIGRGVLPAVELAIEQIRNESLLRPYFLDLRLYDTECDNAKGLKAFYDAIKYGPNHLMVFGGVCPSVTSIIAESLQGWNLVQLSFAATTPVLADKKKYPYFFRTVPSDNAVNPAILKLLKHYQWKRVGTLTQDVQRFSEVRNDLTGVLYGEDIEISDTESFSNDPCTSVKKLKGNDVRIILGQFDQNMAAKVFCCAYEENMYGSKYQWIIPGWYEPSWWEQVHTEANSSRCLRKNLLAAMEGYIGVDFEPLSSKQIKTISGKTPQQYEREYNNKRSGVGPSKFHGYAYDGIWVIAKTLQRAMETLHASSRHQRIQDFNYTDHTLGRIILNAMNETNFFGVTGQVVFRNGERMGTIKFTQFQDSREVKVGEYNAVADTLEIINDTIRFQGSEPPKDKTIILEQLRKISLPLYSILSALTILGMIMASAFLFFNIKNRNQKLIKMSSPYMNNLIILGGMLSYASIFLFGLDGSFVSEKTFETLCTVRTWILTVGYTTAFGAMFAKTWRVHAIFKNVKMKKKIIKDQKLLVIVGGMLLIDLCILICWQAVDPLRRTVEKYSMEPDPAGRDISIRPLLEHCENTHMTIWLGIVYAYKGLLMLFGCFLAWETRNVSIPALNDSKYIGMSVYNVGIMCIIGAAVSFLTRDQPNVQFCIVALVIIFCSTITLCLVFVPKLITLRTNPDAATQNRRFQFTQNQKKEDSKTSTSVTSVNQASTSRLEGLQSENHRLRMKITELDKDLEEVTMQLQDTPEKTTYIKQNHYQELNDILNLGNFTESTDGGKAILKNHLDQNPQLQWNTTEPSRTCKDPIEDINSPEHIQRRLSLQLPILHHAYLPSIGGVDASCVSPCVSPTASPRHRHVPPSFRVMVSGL

Compound: O=C1CN=C(c2ccccc2Cl)c2cc([N+](=O)[O-])ccc2N1 [Clonazepam, reference compound]
- Ki (Benzodiazepine; reference compound, Benzodiazepine): 3.4 nM

Compound: O=C1C[C@@H]2OCC=C3CN4CC[C@]56c7ccccc7N1[C@H]5[C@H]2[C@H]3C[C@H]46 [Strychnine Nitrate, reference compound]
- Ki (Glycine [1]): 33.5 nM

Compound: NCc1cc(=O)[nH]o1 [Muscimol, reference compound]
- Ki (GABAA; reference compound, GABAA): 2.8 nM

Compound: O=C(O)C1CN(CCCP(=O)(O)O)CCN1 (stereo not drawn) [CPP, reference compound]
- Ki (NMDA; reference compound, [3H]CGS19755): 359 nM

Compound: CC(Nc1ccc(Cl)cc1)c1ccncc1 (stereo not drawn) [Compound 2, 1-(4-Chloroanilino)-1-(4-pyridyl)-ethan]
- minimal effective dose (MES and scMet seizures): < 100 mg/kg
- ED50 [2]: < 150 mg/kg
- TD50 [3]: 160 mg/kg
- ED50 [4]: > 250 mg/kg
- TD50 (in vivo): > 470 mg/kg
- Percent Inhibition of specific binding (Average; N = 2) (Adenosine; 1.0^-5 M): -15.9%
- Percent Inhibition of specific binding (Average; N = 2) (Adenosine; 10^-7 M): -15.2%
- Percent Inhibition of specific binding (Average; N = 2) (Glycine [5]; 1.0^-5 M): -4.0%
- inhibition at 0.1 µM (Glycine [5]; [9]): 8.7%
- Percent Inhibition of specific binding (Average; N = 2) (Kainate; 1.0^-5 M): -7.3%
- Percent Inhibition of specific binding (Average; N = 2) (Kainate; 10^-7 M): -3.7%
- activity at the [3H]MK-801-binding receptor sites (in words) (MK-801): no activity
- Percent Inhibition of specific binding (Average; N = 2) (MK-801; 1.0^-5 M): 17.0%
- Percent Inhibition of specific binding (Average; N = 2) (MK-801; 10^-7 M): 13.5%
- Percent Inhibition of specific binding (Average; N = 2) (NMDA; 1.0^-5 M): -6.6%
- Percent Inhibition of specific binding (Average; N = 2) (NMDA; 10^-7 M): 3.5%
- activity at the [3H]TCP-binding receptor sites / PCP receptors (in words) (PCF): no activity
- Percent Inhibition of specific binding (Average; N = 2) (PCF; 1.0^-5 M): -1.8%
- Percent Inhibition of specific binding (Average; N = 2) (PCF; 10^-7 M): -3.8%
- Percent Inhibition of specific binding (Average; N = 2) (Quisqualate; 1.0^-5 M): 4.3%
- Percent Inhibition of specific binding (Average; N = 2) (Quisqualate; 10^-7 M): 4.2%
- inhibition of the binding of [3H]DTG (Sigma; 10 μM concentration): 49%
- Percent Inhibition of specific binding (Average; N = 2) (Sigma; 1.0^-5 M): 49.1%
- Percent Inhibition of specific binding (Average; N = 2) (Sigma; 10^-7 M): 12.9%
- inhibition of the binding of [3H]DTG (in words) (Sigma; σ receptor population): inhibit selectively
- Percent Inhibition of specific binding (Average; N = 2) (Benzodiazepine; 1.0^-5 M): -7.8%
- Percent Inhibition of specific binding (Average; N = 2) (Benzodiazepine; 10^-7 M): -4.7%
- Percent Inhibition of specific binding (Average; N = 2) (GABAA; 1.0^-5 M): 1.2%
- Percent Inhibition of specific binding (Average; N = 2) (GABAA; 10^-7 M): 6.5%
- Percent Inhibition of specific binding (Average; N = 2) (GABAe; 1.0^-5 M): -4.9%
- inhibition at 0.1 µM (GABAe; [9]): 3.6%
- Percent Inhibition of specific binding (Average; N = 2) (Glycine [1]; 1.0^-5 M): -1.4%
- inhibition at 0.1 µM (Glycine [1]; [9]): -1.8%
- activity at 50 µM ([6]; 50 μM (K+), 30 mM K+, P < 0.001 vs K+ alone): 121 ± 8%
- activity at 50 µM ([6]; 50 μM (basal)): 101 ± 6%
- activity at 100 µM ([6]; 100 μM (K+), 30 mM K+, P < 0.001 vs K+ alone): 114 ± 4%
- activity at 100 µM ([6]; 100 μM (basal)): 99 ± 9%
- inhibition at 50 µM ([6]; 50 μM): 74%
- inhibition at 100 µM ([6]; 100 μM): 80%
- ED50 ([7]; Rattus norvegicus, po, read-out: ED50 MES): 22.9 mg/kg
- responders at 50 mg/kg ([7]; Rattus norvegicus, po, read-out: Percent protection at 50 mg/kg dose, p.o., in the MES Test in the rat): 75 to 100%
- P.I. MES (TD50/ED50) ([7]; rat, p.o.): > 20.53
- ED50 ([8]; Mus musculus, ip, read-out: ED50 MES): 53.7 mg/kg
- P.I. MES (TD50/ED50) ([8]; mice, i.p.): 2.98

Reference: US5648369A, “Aminoalkylpyridine compounds which are useful as anitconvulsant drugs, excitatory amino acid inhibitors and NMDA sigma receptor antagonists” (priority 1991, dated 1997)
